Source: US20250215010A1, “DIAZABICYCLOOCTANE DERIVATIVES USEFUL AS MATRIX METALLOPROTEINASE INHIBITORS” (VASA THERAPEUTICS SPOLKA Z OGRANICZONA ODPOWIEDZIALNOSCIA, priority 2022, published 2025)

Assays:
Format in all cases: biochemical
ADAM17 (TACE) = ADAM17 (TACE) (Homo sapiens, UniProt P78536); assay: TACE fluorometric inhibition assay (Enzo kit BML-AK310); conditions: quenched fluorogenic peptide, ex/em 320/420 nm; read-out: TACE IC50 class
Description: (§1) The inhibitory activities of the compounds of the invention were assessed in 96-well microplate format using MMP1, MMP2, MMP9 and MMP13 colorimetric assay kits and TACE fluorometric assay kit from Enzo Life Sciences, Inc. The inhibitory effect of the compounds of the invention on ADAM10 activity were evaluated in 96-well microplate format using fluorometric assay from AnaSpec, Inc.
The TACE Fluorometric Drug Discovery Kit (catalog #BML-AK310) is a complete assay system designed to screen ADAM17 (TACE) inhibitors using a quenched fluorogenic peptide: Mca-PLAQAV-Dpa-RSSSR—NH2. Mca fluorescence is quenched by the Dpa group until cleavage by proteases separates the two moieties leading to an increase in Mca fluorescence.
The inhibitory activity of the compounds of the invention against TACE was tested according to the manufacturer's assay protocol and the fluorescence was monitored at excitation/emission wavelengths=320 nm/420 nm using Tecan Infinite® 200 Pro F Nano^+ microplate reader.
(§2) The normalized values were analyzed using GraphPadPrism 9 for Windows (GraphPad Software, San Diego, CA, USA) software by plotting inhibition curves and determining the IC50 values (in nM).

MMP13 = molecular target: T1, MMP13 (Homo sapiens, UniProt P45452); assay: MMP-13 colorimetric inhibition assay (Enzo kit BML-AK412); conditions: thiopeptide substrate, absorbance 415 nm; read-out: MMP 13 IC50 class
T1 construct: purchased Enzo Life Sciences, Inc. BML-AK412
Description: as §1
(§3) The MMP-13 Colorimetric Drug Discovery Kit (catalog #BML-AK412) is a complete assay system designed to screen inhibitors of matrix metalloproteinase-13 using a thiopeptide as a chromogenic substrate (Ac-PLG-[2-mercapto-4-methylpentanoyl]-LG-OC2H5). The MMP cleavage site peptide bond is replaced by a thioester bond in the thiopeptide. Hydrolysis of this bond by an MMP produces a sulfhydryl group, which reacts with DTNB [5,5′-dithiobis(2-nitrobenzoic acid), Ellman's reagent] to form 2-nitro-5-thiobenzoic acid, that can be detected spectrophotometrically.
(§4) The inhibitory activities of the compounds of the invention against MMP1, MMP2, MMP9 and MMP13 were tested according to the manufacturer's assay protocols and the absorbance at 415 nm was monitored using the Tecan Infinite® 200 Pro F Nano^+ microplate reader.
as §2

MMP1 = molecular target: T2, MMP1 (Homo sapiens, UniProt P03956); assay: MMP-1 colorimetric inhibition assay (Enzo kit BML-AK404); conditions: thiopeptide substrate, absorbance 415 nm; read-out: MMP 1 IC50 class
T2 sequence (P03956 100-269 limits assumed): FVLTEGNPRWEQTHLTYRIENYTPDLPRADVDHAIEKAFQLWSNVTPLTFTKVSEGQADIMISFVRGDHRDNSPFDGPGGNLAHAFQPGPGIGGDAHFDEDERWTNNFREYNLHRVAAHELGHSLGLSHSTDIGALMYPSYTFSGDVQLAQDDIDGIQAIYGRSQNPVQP
Description: as §1
as §3, with “MMP-1” for “MMP-13”, “#BML-AK404)” for “#BML-AK412)”, “metalloproteinase-1” for “metalloproteinase-13”
as §4, §2

MMP2 = molecular target: T3, MMP2 (Homo sapiens, UniProt P08253); assay: MMP-2 colorimetric inhibition assay (Enzo kit BML-AK408); conditions: thiopeptide substrate, absorbance 415 nm; read-out: MMP 2 IC50 class
T3 sequence (P08253 110-660): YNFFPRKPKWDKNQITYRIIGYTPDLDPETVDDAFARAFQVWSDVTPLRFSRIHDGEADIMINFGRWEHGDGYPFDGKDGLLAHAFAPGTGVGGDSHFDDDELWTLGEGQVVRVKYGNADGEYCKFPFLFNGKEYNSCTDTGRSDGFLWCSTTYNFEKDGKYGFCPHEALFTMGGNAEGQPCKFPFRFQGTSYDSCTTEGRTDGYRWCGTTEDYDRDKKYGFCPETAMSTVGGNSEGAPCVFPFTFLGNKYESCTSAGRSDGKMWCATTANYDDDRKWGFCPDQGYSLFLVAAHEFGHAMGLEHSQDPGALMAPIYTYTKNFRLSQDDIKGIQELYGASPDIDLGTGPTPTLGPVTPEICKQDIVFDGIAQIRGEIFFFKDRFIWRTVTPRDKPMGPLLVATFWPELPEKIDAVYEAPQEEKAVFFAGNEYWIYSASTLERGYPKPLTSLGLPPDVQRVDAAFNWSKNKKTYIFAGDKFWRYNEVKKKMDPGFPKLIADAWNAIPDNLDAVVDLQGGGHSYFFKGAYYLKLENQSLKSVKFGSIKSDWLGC
Description: as §1
as §3, with “MMP-2” for “MMP-13”, “#BML-AK408)” for “#BML-AK412)”, “screen MMP-2” for “screen”, “inhibitors” for “inhibitors of matrix metalloproteinase-13”
as §4, §2

MMP9 = MMP9 (Homo sapiens, UniProt P14780); assay: MMP-9 colorimetric inhibition assay (Enzo kit BML-AK410); conditions: thiopeptide substrate, absorbance 415 nm; read-out: MMP 9 IC50 class
Description: as §1
as §3, with “MMP-9” for “MMP-13”, “#BML-AK410)” for “#BML-AK412)”, “metalloproteinase-9” for “metalloproteinase-13”
as §4, §2

Chain of MMP9 (P14780 94-707): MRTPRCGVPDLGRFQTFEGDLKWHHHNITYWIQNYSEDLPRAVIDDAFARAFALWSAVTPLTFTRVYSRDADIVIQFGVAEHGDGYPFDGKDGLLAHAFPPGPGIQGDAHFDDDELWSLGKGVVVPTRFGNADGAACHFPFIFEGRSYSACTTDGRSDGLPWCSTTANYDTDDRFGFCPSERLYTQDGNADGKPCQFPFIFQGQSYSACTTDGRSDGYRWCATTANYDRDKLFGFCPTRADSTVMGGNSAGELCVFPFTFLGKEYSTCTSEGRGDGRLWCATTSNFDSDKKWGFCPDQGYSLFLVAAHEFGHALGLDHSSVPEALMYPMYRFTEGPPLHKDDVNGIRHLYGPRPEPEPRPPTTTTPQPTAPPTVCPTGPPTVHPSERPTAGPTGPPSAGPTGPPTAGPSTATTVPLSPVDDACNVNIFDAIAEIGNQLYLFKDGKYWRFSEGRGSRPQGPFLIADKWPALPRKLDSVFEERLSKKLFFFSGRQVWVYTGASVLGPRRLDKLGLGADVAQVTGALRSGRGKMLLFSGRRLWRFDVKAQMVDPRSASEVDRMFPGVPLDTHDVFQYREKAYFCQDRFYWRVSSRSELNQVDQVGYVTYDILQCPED
Chain of ADAM17 (TACE) (P78536 215-477 limits assumed): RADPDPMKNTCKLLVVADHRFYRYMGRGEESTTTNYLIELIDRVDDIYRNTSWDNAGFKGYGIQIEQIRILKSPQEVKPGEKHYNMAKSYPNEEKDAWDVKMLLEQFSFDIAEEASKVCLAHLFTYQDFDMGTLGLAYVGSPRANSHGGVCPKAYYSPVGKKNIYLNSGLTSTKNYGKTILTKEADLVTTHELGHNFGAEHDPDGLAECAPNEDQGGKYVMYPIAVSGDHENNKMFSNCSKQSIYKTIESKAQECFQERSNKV

SMILES	IC50 (ADAM17 (TACE))	IC50 (MMP13)	IC50 (MMP1)	IC50 (MMP2)	IC50 (MMP9)
COCCOC(=O)N1[C@@H]2CC[C@H]1[C@H](C(=O)NO)N(S(=O)(=O)c1cnc(Oc3ccc(F)cc3)c(F)c1)C2 [Example 6, 2-methoxyethyl (1S,2R,5R)-3-((5-fluoro-6-(4-fluoro-phenoxy)pyridin-3-yl)sulfonyl)-2-(hydroxycarbamoyl)-3,8-diazabicyclo[3.2.1]-octane-8-carboxylate]	1000 to 10000 nM	< 50 nM	1000 to 10000 nM	< 50 nM	< 50 nM
COCCOC(=O)N1[C@@H]2CC[C@H]1[C@H](C(=O)NO)N(S(=O)(=O)c1cnc(Oc3ccc(F)cc3)cn1)C2 [Example 17, 2-methoxyethyl (1S,2R,5R)-3-((5-(4-fluorophenoxy)-pyrazin-2-yl)sulfonyl)-2-(hydroxycarbamoyl)-3,8-diazabicyclo-[3.2.1]octane-8-carboxylate]	> 10000 nM	1000 to 10000 nM	> 10000 nM	1000 to 10000 nM	1000 to 10000 nM
COCCOC(=O)N1[C@@H]2CC[C@H]1[C@H](C(=O)NO)N(S(=O)(=O)N1CCN(C(=O)c3ccc(Cl)cc3)CC1)C2 [Example 78, 2-methoxyethyl (1S,2R,5R)-3-((4-(4-chlorobenzoyl)piperazin-1-yl)sulfonyl)-2-(hydroxycarbamoyl)-3,8-diazabicyclo[3.2.1]octane-8-carboxylate]	1000 to 10000 nM	1000 to 10000 nM	> 10000 nM	1000 to 10000 nM	1000 to 10000 nM
COCCOC(=O)N1[C@@H]2CC[C@H]1[C@H](C(=O)NO)N(S(=O)(=O)c1ccc(Oc3cncc(Cl)c3)nc1)C2 [Example 15, (1S,2R,5R)-2-methoxyethyl 3-((6-((5-chloropyridin-3-yl)oxy)pyridin-3-yl)-sulfonyl)-2-(hydroxycarbamoyl)-3,8-diazabicyclo[3.2.1]-octane-8-carboxylate]	50 to 1000 nM	50 to 1000 nM	1000 to 10000 nM	50 to 1000 nM	50 to 1000 nM
O=C(NO)[C@H]1[C@@H]2CC[C@H](CN1S(=O)(=O)c1ccc(Oc3ccc(F)cc3)nc1)N2C(=O)N1CCOCC1 [Example 68, (1S,2R,5R)-3-((6-(4-fluorophenoxy)pyridin-3-yl)sulfonyl)-N-hydroxy-8-(morpholine-4-carbonyl)-3,8-diazabicyclo[3.2.1]octane-2-carboxamide]	1000 to 10000 nM	< 50 nM	1000 to 10000 nM	< 50 nM	50 to 1000 nM
COCCOC(=O)N1[C@@H]2CC[C@H]1[C@H](C(=O)NO)N(S(=O)(=O)N1CCC(Oc3ccnc(C(F)(F)F)c3)CC1)C2 [Example 49, 2-methoxyethyl (1S,2R,5R)-2-(hydroxy-carbamoyl)-3-((4-((2-(trifluoro-methyl)pyridin-4-yl)oxy)-piperidin-1-yl)-sulfonyl)-3,8-diazabicyclo-[3.2.1]octane-8-carboxylate]	1000 to 10000 nM	50 to 1000 nM	> 10000 nM	50 to 1000 nM	50 to 1000 nM
COCCOC(=O)N1[C@@H]2CC[C@H]1[C@H](C(=O)NO)N(S(=O)(=O)c1ccc(OC3CCC(C)(C)CC3)nc1)C2 [Example 12, 2-methoxyethyl (1S,2R,5R)-3-((6-((4,4-dimethyl-cyclohexyl)-oxy)pyridin-3-yl)-sulfonyl)-2-(hydroxycarbamoyl)-3,8-diazabicyclo[3.2.1]-octane-8-carboxylate]	1000 to 10000 nM	50 to 1000 nM	1000 to 10000 nM	50 to 1000 nM	< 50 nM
COCCOC(=O)N1[C@@H]2CC[C@H]1[C@H](C(=O)NO)N(S(=O)(=O)c1ccc(Oc3ccc(F)cc3)cn1)C2 [Example 14, 2-methoxyethyl (1S,2R,5R)-3-((5-(4-fluorophenoxy)pyridin-2-yl)sulfonyl)-2-(hydroxycarbamoyl)-3,8-diazabicyclo[3.2.1]octane-8-carboxylate]	1000 to 10000 nM	< 50 nM	1000 to 10000 nM	< 50 nM	< 50 nM
COCCOC(=O)N1[C@@H]2CC[C@H]1[C@H](C(=O)NO)N(S(=O)(=O)c1ccc(Oc3cncc(F)c3)nc1)C2 [Example 23, 2-methoxyethyl (1S,2R,5R)-3-((6-((5-fluoropyridin-3-yl)oxy)pyridin-3-yl)-sulfonyl)-2-(hydroxycarbamoyl)-3,8-diaza-bicyclo[3.2.1]octane-8-carboxylate]	1000 to 10000 nM	50 to 1000 nM	50 to 1000 nM	< 50 nM	50 to 1000 nM
CN(C)C(=O)CN1[C@@H]2CC[C@H]1[C@H](C(=O)NO)N(S(=O)(=O)c1ccc(Oc3ccc(F)cc3)nc1)C2 [Example 51, (1S,2R,5R)-8-(2-(dimethylamino)-2-oxoethyl)-3-((6-(4-fluorophenoxy)pyridin-3-yl)sulfonyl)-N-hydroxy-3,8-diazabicyclo[3.2.1]octane-2-carboxamide]	> 10000 nM	< 50 nM	1000 to 10000 nM	< 50 nM	50 to 1000 nM
COCCOC(=O)N1[C@@H]2CC[C@H]1[C@H](C(=O)NO)N(S(=O)(=O)c1ccc(OC3CCOCC3)nc1)C2 [Example 13, 2-methoxyethyl (1S,2R,5R)-2-(hydroxycarbamoyl)-3-((6-((tetrahydro-2H-pyran-4-yl)oxy)-pyridin-3-yl)sulfonyl)-3,8-diazabicyclo[3.2.1]-octane-8-carboxylate]	1000 to 10000 nM	< 50 nM	1000 to 10000 nM	50 to 1000 nM	< 50 nM
CC(C)Oc1ccc(Oc2ccc(S(=O)(=O)N3C[C@H]4CC[C@@H]([C@@H]3C(=O)NO)N4C(=O)C(C)(C)C)cn2)cc1 [Example 61, (1S,2R,5R)-N-hydroxy-3-((6-(4-isopropoxyphenoxy)-pyridin-3-yl)-sulfonyl)-8-pivaloyl-3,8-diazabicyclo-[3.2.1]octane-2-carboxamide]	> 10000 nM	< 50 nM	1000 to 10000 nM	< 50 nM	50 to 1000 nM
